Test results: US7063966B2, “Chimeric G protein coupled receptors” (SRI International, priority 2001, dated 2006)
Like-named read-outs stand apart in the source and are kept apart here.

Legend:
Assay type in all cases: cell-based
Edg1/3(i3ct) [1] = target: T1, Edg1/3(i3ct) (Homo sapiens, UniProt P21453, DEL241-247/F237N/K239N/K250R/K256R/L235V/L252M/N315S/R231S/R234K/R238H/T230S/T236A); test: Dose response of intracellular calcium mobilization (FLIPR) in HTC4 cells expressing chimeric Edg1/3(i3ct)
T1 construct: DNA encoding the full length Edg 1/3(i3ct) chimera was then produced in a tertiary PCR reaction; expressed in transfected cells
T1 sequence (P21453 with tags, fused parts or gaps with the stated changes): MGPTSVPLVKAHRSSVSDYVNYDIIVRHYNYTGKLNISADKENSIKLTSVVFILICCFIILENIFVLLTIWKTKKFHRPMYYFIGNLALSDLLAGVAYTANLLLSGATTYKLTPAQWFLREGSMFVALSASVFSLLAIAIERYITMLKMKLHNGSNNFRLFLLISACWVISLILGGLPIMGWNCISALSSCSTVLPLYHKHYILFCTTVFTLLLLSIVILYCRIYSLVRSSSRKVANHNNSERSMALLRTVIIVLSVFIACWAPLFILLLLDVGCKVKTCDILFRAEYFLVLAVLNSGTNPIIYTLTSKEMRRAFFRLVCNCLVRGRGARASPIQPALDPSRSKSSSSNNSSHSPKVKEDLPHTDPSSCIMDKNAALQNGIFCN

Edg 1 = Edg 1 (Homo sapiens, UniProt P21453); test: Intracellular calcium mobilization (FLIPR) in HTC4 cells expressing Edg 1; conditions: 100 nM S1P, FIG. 2
Sequence of Edg 1 (P21453 whole entry): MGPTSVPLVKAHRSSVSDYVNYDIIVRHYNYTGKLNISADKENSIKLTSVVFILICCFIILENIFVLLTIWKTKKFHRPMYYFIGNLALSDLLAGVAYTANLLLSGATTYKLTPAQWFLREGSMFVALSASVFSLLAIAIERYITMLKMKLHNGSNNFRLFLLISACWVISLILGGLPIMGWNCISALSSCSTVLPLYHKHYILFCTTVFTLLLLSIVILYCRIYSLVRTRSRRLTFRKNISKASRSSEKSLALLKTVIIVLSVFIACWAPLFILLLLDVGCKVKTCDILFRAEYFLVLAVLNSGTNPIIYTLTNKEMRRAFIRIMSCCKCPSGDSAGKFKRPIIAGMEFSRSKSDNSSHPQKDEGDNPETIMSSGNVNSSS
Description: (§1) Media from GP-293 cells was collected and filtered through a […] PES syringe filter to remove cell debris. Polybrene (hexadimethrine bromide, Sigma) was added to each virus laden supernatant to a final concentration of […]. After removing the culture medium from the target cells, the virus-laden medium was used to overlay the host cell line HTC4 (rat hepatoma cell line; from Ed Goetzl, UCSF). Following infection, cells were incubated for 18–24 hours. Cells resistant to antibiotic (Geneticin, G418, […], Sigma) were selected. Clonal populations were selected from the pooled stable cells using a standard limiting dilution technique (adapted from “Antibodies: A Laboratory Manual”; 1988, Harlow, E. and Lane, D., Cold Spring Harbor Laboratory, New York).
(§2) HTC4 rat hepatoma cells stably transfected with Edg 1, Edg 1/3(ct), Edg1/3(i3ct) or Edg1/3(i2i3ct) according to Example 6.7 were plated on 384-well plates and loaded with a calcium dye loading kit (Molecular Devices, Sunnyvale, Calif.) for 1 hour at room temperature. Cells were then placed on FLIPR^384 (Molecular Devices, Sunnyvale, Calif.) and excited by an argon laser at 488 nm. In this assay, fluorescence changes over basal levels indicate an increase in intracellular calcium. In FIG. 2, basal fluorescence is at 0 (arbitrary units). […]

Edg1/3(i3ct) [2] = target: T1, Edg1/3(i3ct); test: Intracellular calcium mobilization (FLIPR) in HTC4 cells expressing Edg1/3(i3ct), single concentration; conditions: 100 nM S1P, FIG. 2
Description: as §1, §2

Edg1/3(i2i3ct) = target: T2, Edg1/3(i2i3ct) (Homo sapiens, UniProt P21453, DEL241-247/F158H/F237N/G154A/H152Y/I144L/K150R/K239N/K250R/K256R/L147I/L151P/L235V/L252M/N153D/N156K/N157R/N315S/R231S/R234K/R238H/S155N/T230S/T236A/Y143H); test: Intracellular calcium mobilization (FLIPR) in HTC4 cells expressing Edg1/3(i2i3ct); conditions: 100 nM S1P, FIG. 2
T2 construct: DNA encoding the full length Edg 1/3(i2i3ct) chimera was then produced in a tertiary PCR reaction; expressed in transfected cells
T2 sequence (P21453 with tags, fused parts or gaps with the stated changes): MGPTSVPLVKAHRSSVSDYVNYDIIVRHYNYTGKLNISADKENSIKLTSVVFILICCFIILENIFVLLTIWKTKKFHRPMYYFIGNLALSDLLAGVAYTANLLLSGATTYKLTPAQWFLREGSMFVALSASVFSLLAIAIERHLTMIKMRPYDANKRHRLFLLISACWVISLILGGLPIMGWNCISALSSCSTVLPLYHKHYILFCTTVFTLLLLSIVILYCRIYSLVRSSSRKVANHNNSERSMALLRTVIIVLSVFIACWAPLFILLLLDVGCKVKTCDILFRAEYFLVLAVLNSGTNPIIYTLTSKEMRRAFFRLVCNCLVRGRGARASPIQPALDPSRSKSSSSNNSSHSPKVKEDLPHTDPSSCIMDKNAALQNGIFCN
Description: as §1, §2

Edg 1/3(ct) = target: T3, Edg 1/3(ct) (Homo sapiens, UniProt P21453, N315S); test: Intracellular calcium mobilization (FLIPR) in HTC4 cells expressing Edg 1/3(ct); conditions: 100 nM S1P, FIG. 4
T3 construct: DNA encoding the full length Edg 1/3(ct) chimera was produced in a secondary PCR reaction; expressed in transfected cells
T3 sequence (P21453 with tags, fused parts or gaps N315S): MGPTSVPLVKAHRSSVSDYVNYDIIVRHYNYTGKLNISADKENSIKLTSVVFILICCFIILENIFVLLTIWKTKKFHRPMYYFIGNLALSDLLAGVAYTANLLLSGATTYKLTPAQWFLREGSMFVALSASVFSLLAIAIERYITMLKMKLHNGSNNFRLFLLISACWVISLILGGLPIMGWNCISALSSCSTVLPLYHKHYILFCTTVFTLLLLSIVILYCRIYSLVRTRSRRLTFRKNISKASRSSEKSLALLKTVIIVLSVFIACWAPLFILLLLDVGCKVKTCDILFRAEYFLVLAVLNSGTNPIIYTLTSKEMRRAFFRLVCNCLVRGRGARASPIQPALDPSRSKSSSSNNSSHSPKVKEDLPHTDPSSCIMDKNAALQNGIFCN
Description: as §1, §2

Edg5/3(i3ct) = target: T4, Edg5/3(i3ct) (Homo sapiens, UniProt O95136, A221R/A225S/D222K/F113S/H220S/INS224NHNN/K233R/L229M/M223V/P226E/Q227R/R217K/T228S); test: Intracellular calcium mobilization (FLIPR) in HTC4 cells expressing Edg5/3(i3ct); conditions: 100 nM S1P, FIG. 5
T4 construct: DNA encoding the full length Edg 5/3(i3ct) chimera was then produced in a tertiary PCR reaction; expressed in transfected cells
T4 sequence (O95136 with tags, fused parts or gaps with the stated changes): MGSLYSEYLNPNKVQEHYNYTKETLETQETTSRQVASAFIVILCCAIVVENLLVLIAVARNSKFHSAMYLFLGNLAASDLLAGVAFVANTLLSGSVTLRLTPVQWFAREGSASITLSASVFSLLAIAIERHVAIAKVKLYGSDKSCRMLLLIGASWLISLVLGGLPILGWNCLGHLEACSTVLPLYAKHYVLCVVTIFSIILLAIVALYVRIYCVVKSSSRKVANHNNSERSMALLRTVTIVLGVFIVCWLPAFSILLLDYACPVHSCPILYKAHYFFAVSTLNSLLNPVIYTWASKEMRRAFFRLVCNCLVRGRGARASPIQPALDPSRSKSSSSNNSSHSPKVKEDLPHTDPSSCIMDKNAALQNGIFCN
Description: as §1
(§3) HTC4 rat hepatoma cells stably transfected with Edg5/3(i3ct) and Edg8/4(ct) according to Example 6.7 were plated on 384-well plates and loaded with a calcium dye loading kit (Molecular Devices, Sunnyvale, Calif.) for 1 hour at room temperature. Cells were then placed on FLIPR^384 (Molecular Devices, Sunnyvale, Calif.) and excited by an argon laser at 488 nm. In this assay, fluorescence changes over basal levels indicate an increase in intracellular calcium. […] The cells were contacted with 100 nM of the Edg 5 and Edg 8 agonist sphingosine-1-phosphate (S1P) 50 seconds after the start of the assay.

Edg8/4(ct) = target: T5, Edg8/4(ct) (Homo sapiens, UniProt Q9H228); test: Intracellular calcium mobilization (FLIPR) in HTC4 cells expressing Edg8/4(ct); conditions: 100 nM S1P, FIG. 5
T5 construct: DNA encoding the full length Edg 8/4(ct) chimera was produced in a secondary PCR reaction; expressed in transfected cells
T5 sequence (Q9H228 with tags, fused parts or gaps): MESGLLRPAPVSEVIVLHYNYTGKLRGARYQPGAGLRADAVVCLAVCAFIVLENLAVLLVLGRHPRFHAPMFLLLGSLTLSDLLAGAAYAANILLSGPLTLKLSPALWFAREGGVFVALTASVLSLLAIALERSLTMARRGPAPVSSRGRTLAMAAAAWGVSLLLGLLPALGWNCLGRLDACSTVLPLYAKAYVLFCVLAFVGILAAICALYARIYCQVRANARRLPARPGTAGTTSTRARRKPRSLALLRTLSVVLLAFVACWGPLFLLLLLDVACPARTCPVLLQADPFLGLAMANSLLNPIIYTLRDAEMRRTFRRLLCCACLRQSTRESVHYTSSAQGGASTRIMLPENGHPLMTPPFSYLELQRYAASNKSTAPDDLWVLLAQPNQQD
Description: as §1, §3

## CCCCCCCCCCCCC/C=C/[C@@H](O)[C@@H](N)COP(=O)(O)O [S1P, sphingosine-1-phosphate]
Edg1/3(i3ct) [1]
  EC50: ~10 nM
Edg 1
  change in intracellular calcium: no change in intracellular calcium
Edg1/3(i3ct) [2]
  change in intracellular calcium: significant change in intracellular calcium
Edg1/3(i2i3ct)
  change in intracellular calcium: significant change in intracellular calcium
Edg 1/3(ct)
  intracellular calcium mobilization: functional, although not as robust as Edg1/3(i3ct) or Edg1/3(i2i3ct)
Edg5/3(i3ct)
  intracellular calcium mobilization: mobilize intracellular calcium
Edg8/4(ct)
  intracellular calcium mobilization: mobilize intracellular calcium

## CCCCCCCCCCCCCCC[C@@H](O)[C@@H](N)COP(=O)(O)O [dihydro S1P, dihydro sphingosine-1-phosphate]
Edg1/3(i3ct) [1]; HTC4 rat hepatoma cells stably transfected with Edg1/3(i3ct), FIG. 3, read-out: EC50 of intracellular calcium mobilization
  EC50: ~10 nM
